# Columns and labels:
# B16F10 tumor sections = assay: TUNEL assay with VE-cadherin staining on tumor sections; format: in vivo, mice
# Experimental: After completion of the in vivo experiment, one mouse from each group was sacrificed to check the apoptosis in tumor mass. First the tumors were frozen in Jung tissue medium (Leica Microsystem, Germany) followed by cryo-sectioning of 10 μm thin sections using Leica CM1850 cryostat (Germany). These were then fixed into 4% formalin for 15 min. TUNEL assay was carried out using Dead-End fluorometric apoptosis detection kit ([…]) following manufacturer's protocol. The same cryosections were washed with PBS and incubated with VE-cadherin mouse monoclonal antibody at 1:200 dilutions (Santa Cruz Biotech.) for 2 h at 4° C. to stain the blood vessel, followed by one hour incubation with goat anti-mouse IgG-PE (Santa Cruz Biotech.) secondary antibody; after that tissue sections were washed and observed under Nikon TE2000E microscope at 10× magnification.
# T47D = assay: Apoptosis by flow cytometry (annexin V-FITC/PI), T47D; format: cell-based, human; details: 10 μM, 36 h
# Experimental: (§1) Apoptosis study was performed by flow cytometry using annexin V-FITC-labeled apoptosis detection kit (Sigma) following manufacturer's protocol. Cells (□×□□^□ cells/well) were seeded in six-well plates and incubate for 16-18 h. After 16-18 h, cells were either kept untreated or treated with 10 μM compound 1 and 10 μM 6c for 36 h. Next, cells were trypsinized and washed with PBS. Then the cells were re-suspended in 1× binding buffer at a density of 1×10^6 cells/ml and stained simultaneously with FITC-labeled annexin V (25 ng/ml) and propidium iodide (50 ng/ml). After 15 min incubation, cells were analyzed using a flow cytometer (FACS Canto II, Becton-Dickinson, San Jose, Calif., USA), and data were analyzed with FCS Express V3 software. Minimum of 10000 events were gated per sample.
# CHO = assay: Apoptosis by flow cytometry (annexin V-FITC/PI), CHO; format: cell-based, Chinese hamster; details: 10 μM, 36 h
# Experimental: as §1
# [1] = test system: PI3K/AKT pathway involving protein in B16F10 cells; assay: Western blot of B16F10 cell lysates: PI3K/AKT pathway involving protein (FIG. 4B); format: cell-based, murine; details: B16F10, 10 μM, 36 h
# Experimental: (§2) For in vitro cell lysate preparation, B16F10 cells were either treated with compound 1 (10 μM), 6c (10 μM) or kept untreated for 36 h continuously. After that cells were washed with cold PBS for two times, and lysed by incubating for 30 min on ice with ice-cold RIPA lysis buffer (50 mM Tris [pH 7.5], 1% NP-40, 150 mM NaCl, 0.1% sodium dodecyl sulfate [SDS], 0.5% sodium deoxycholate) containing 1% proteinase inhibitor cocktails (PIC) (Cell Signaling Technology). Following 30 min of incubation cells were centrifuged at 14,000 rpm at 4° C. for 15 minutes, supernatant was collected, and Protein concentration was measured by using BCA assay a kit (thermo scientific). For in vivo whole cell lysate, after completion of the in vivo experiment one C57BL/6J mice with representative tumor size from each group was sacrificed and tumor was collected, lysed by ice-cold RIPA buffer with 1% PIC, whole cell lysate was prepared following the same steps as mentioned above. Respective cell lysates were run in SDS-PAGE gel (8%-15%) and then the bands were transferred to polyvinylidene fluoride (PVDF) membrane. Membranes were then first incubated with respective primary antibodies and then with alkaline phosphates conjugated secondary antibody (Goat-anti-rabbit and Goat-anti-mouse). Immunodetection was performed with BCIP/NBT substrate (Sigma-Aldrich).
# (§3) Cytochrome-C (4272S), BAX (2772S), Bcl-2 (2876S), Cassepase-3 (9665S), β-actin (8457S), PI3K-p110α (4249S), PI3K-p85 (4257S), AKT (272S), p-AKT (4060S), PTEN (9552S), p-mdm2 (3521S), p53 (2524S), GAPDH (5174S) were purchased from Cell Signaling Technology; Casepase-9 (PA5-16358) was purchased from Pierce; mdm2 (ab38618) was purchased from Abcam; secondary antibodies mouse anti-rabbit IgG-PE (sc-3753) was purchased from Santa Cruz Biotechnology; Goat anti-mouse IgG Alkaline Phosphatase (DC05L) and goat anti-rabbit IgG Alkaline Phosphatase (DC06L) were purchased from Calbiochem.
# B16F10 = assay: Apoptosis by flow cytometry (annexin V-FITC/PI), B16F10; format: cell-based, murine; details: B16F10, 10 μM, 36 h
# Experimental: as §1
# [2] = test system: apoptosis related protein in B16F10 cells; assay: Western blot of B16F10 cell lysates: apoptosis related protein (FIG. 4A); format: cell-based, murine; details: B16F10, 10 μM, 36 h
# Experimental: as §2, §3
# [3] = test system: B16F10 tumor lysate proteins; assay: Western blot analysis with B16F10 tumor lysates (FIG. 5B); set-up: species or system C57BL/6J mice; details: B16F10 tumor lysate after in vivo treatment
# Experimental: as §2, with “(Sigma-Aldrich). […]” for “(Sigma-Aldrich).”
compound,measurement,setting,value
"CCCCCCCCCC[N+](C)(CCCCCCCCCC)CCNC(=O)CCC(=O)O[C@@H](C)[C@H]1CCC2C3CCC4=CC(=O)CC[C@]4(C)C3CC[C@@]21C (stereo partly drawn) [Compound 6c, N-decyl-N-(2-(4-((1S)-1-((10R,13S,17S)-10,13-dimethyl-3-oxo-2,3,6,7,8,9,10,11,12,13,14, 15,16,17-tetradecahydro-1H-cyclopenta[a]phenanthren-17-yl)ethoxy)-4-oxobutanamido)ethyl)-N-methyldecan-1-aminium chloride]",extent of apoptosis induced in the blood vessel,"B16F10 tumor sections; TUNEL / VE-cadherin merge, tumor sections",very high
same,number of apoptotic cells in tumor compared to untreated or PR,"B16F10 tumor sections; TUNEL, tumor sections of treated mice",significantly higher
same,apoptotic cell,T47D,73%
same,apoptosis in normal cell,CHO,largely remains unaffected
same,PTEN protein expression,[1],elevated expression
same,expression of catalytic and regulatory subunit of PI3K protein,[1],decrease in the expression
same,p53 expression level,[1],elevated the expression level
same,p-AKT level compared to PR treated group,[1],significant reduction
same,pMdm2 level,[1],reduced
same,apoptotic cell,B16F10,53.22%
same,BAX/Bcl-2 ratio compared to untreated group,[2],~4 fold
same,caspase 3 expression,[2],increase in level
same,caspase 9,[2],formation of active caspase 9
same,cytochrome C expression,[2],elevated expression
same,caspase 3 in tumor lysate,[3],increase
same,p53 expression level in tumor lysate,[3],significant increase
